Assay results: patent publication US11472831B2, “Isotopically labeled bile acid derivatives” (Intercept Pharmaceuticals, Inc., priority 2017, dated 2022)

Legend:
[1] = Clinical study Part 1, Regimen A: oral plasma PK and absolute bioavailability of 25 mg OCA tablet; assay type: in vivo, human
Method: The objectives of this study were to determine the absolute bioavailability of OCA, and evaluate the absorption, distribution, metabolism, and excretion of OCA in healthy male subjects. In addition, the oral pharmacokinetics (PK) of OCA and carbon-14 ([^14C]-OCA, and intravenous (IV) PK of [^14C]-OCA were evaluated.
The PK objectives of Part 1 were to determine the absolute bioavailability of OCA, to define the intravenous (IV) PK of a microtracer dose of [14C] OCA, and to evaluate the oral PK of OCA. In Part 1, subjects were administered the oral dose (Regimen A: 25 mg OCA tablet), followed by the IV microtracer dose (Regimen B: 100 μg [14C]-OCA) 1 hour 45 minutes after the oral dose administration. The 15 minute IV infusion ended at the estimated tmax for the oral dose (2 hours).
To evaluate the oral PK, plasma concentrations of OCA and its conjugates were measured following an oral dose (Regimen A: 25 mg OCA). OCA was rapidly absorbed; the median tmax was 0.5 hrs. Following Cmax, OCA concentration declined rapidly within 4 hours, consistent with the IV profile of OCA. Subsequent OCA concentrations remained, on average, less than 10% of Cmax up to 72 hours post-dose. A prolonged profile of OCA was observed over the course of 72 hours (FIG. 4). This low level persistence of parent OCA is most likely due to deconjugation of glyco-OCA and tauro-OCA by commensal bacteria in the ileum and colon, followed by reabsorption of OCA.
Mean (SD) plasma concentrations over time of total OCA (the sum of OCA, glyco-OCA, and tauro-OCA) are presented in FIG. 15 (Note: Total OCA calculated as sum of OCA, glyco-OCA, and tauro-OCA concentrations at each time point, glyco-OCA, and tauro-OCA concentrations at each time point expressed as mass equivalents of OCA). Consistent with the [^14C]-OCA results, the maximum exposure of total OCA occurred after a meal, consistent with gallbladder release and enterohepatic recirculation, leading to exposure levels being observed up to 72 hours post-dose. Based on overall exposure of total OCA (AUC0-t), glyco-OCA and tauro-OCA are the primary components of exposure, with minimal contribution (less than 10%) from the parent (OCA).
Absolute bioavailability was determined by the ratio of dose normalized AUC for oral dose/dose normalized AUC for IV dose. […] This relatively low value for bioavailability is consistent with the efficient uptake typical of bile acids into the liver, the primary site of action of OCA. PK results were as expected for a bile acid. OCA is rapidly absorbed in the intestine and taken up in the liver, where it is conjugated with glycine and taurine. Glyco-OCA and tauro-OCA were the primary components of exposure, with minimal contribution from the parent (OCA). Enterohepatic recirculation produced an extended profile, with maximum exposure occurring after meals.

[2] = Clinical study Part 2, Regimen C: plasma PK and metabolite profile after 25 mg oral dose of [14C]-OCA; assay type: in vivo, human; details: for AUC0-t / Cmax / tmax: plasma; for AUC0-t / Cmax: mean (SD); for circulating OCA metabolites other than glyco-OCA and tauro-OCA: metabolite profiling of radioactivity, mass spectrometry, authentic standards
Description: Part 2 also evaluated the extent of distribution of total radioactivity into blood cells, and identified metabolites accounting for more than 10% of circulating total radioactivity. The concentrations of total radioactivity and total OCA in plasma over time are shown in FIG. 16 (Note: Total OCA calculated as sum of OCA, glyco-OCA, and tauro-OCA concentrations at each time point, glyco-OCA, and tauro-OCA concentrations at each time point expressed as mass equivalents of OCA) and FIG. 17 (Note: Total OCA calculated as sum of OCA, glyco-OCA, and tauro-OCA concentrations at each time point, glyco-OCA, and tauro-OCA concentrations at each time point expressed as mass equivalents of OCA. Units for total radioactivity are mass equivalent to OCA (i.e. ng-eq OCA/mL)). […] Two additional OCA metabolites were identified: OCA-3 glucuronide and OCA-24 glucuronide, based on the metabolite profiling of radioactivity, mass spectrometry, and authentic standards for the glucuronide metabolites. […] Following Cmax, OCA concentration declined rapidly within the first 4 hours. The maximum exposure of total OCA, including the conjugates, occurred after meals, consistent with gallbladder release and enterohepatic recirculation, leading to exposure levels being observed over the approximately 4-week sampling period.

[3] = statement, no data shown; cited from earlier work
[4] = target: T1, farnesoid X receptor (FXR) (Homo sapiens, UniProt Q96RI1); details: background statement; cited from earlier work
T1 sequence (Q96RI1 1-486): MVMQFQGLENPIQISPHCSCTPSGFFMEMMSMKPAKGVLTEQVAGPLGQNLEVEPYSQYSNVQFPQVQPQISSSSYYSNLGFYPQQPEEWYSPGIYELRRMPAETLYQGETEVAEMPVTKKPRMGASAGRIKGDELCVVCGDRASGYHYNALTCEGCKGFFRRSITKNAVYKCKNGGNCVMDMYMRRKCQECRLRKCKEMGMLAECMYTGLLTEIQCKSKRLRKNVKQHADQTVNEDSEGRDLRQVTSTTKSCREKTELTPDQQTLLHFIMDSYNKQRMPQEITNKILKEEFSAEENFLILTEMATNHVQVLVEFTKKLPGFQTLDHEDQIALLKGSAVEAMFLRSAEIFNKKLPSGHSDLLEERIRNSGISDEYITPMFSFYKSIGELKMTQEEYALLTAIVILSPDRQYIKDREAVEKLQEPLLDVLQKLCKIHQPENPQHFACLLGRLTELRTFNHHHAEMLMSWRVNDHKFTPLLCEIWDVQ

[5] = Clinical study Part 1, Regimen B: IV plasma PK of 100 μg microtracer dose of [14C]-OCA; assay type: in vivo, human
Method: The objectives of this study were to determine the absolute bioavailability of OCA, and evaluate the absorption, distribution, metabolism, and excretion of OCA in healthy male subjects. […] Mean plasma concentrations of total radioactivity are shown in FIG. 12, and of [^14C]-OCA in FIG. 13. The highest concentration of radioactivity in plasma was measured after completion of the IV dose, and the concentrations of OCA declined rapidly within 4 hours. After the initial decline, a low-level, prolonged profile of OCA and total radioactivity was observed, as expected due to enterohepatic recirculation.

[6] = Clinical study Part 2: mass balance recovery of radioactivity in urine and feces after 25 mg oral [14C]-OCA; assay type: in vivo, human
Method: Part 2 also evaluated the extent of distribution of total radioactivity into blood cells, and identified metabolites accounting for more than 10% of circulating total radioactivity. The mean cumulative recovery (cumulative % Ae (Amount excreted)) of radioactivity in the urine and feces of subjects receiving oral [^14C]-OCA is shown in FIG. 18. […] The majority of drug-related material in the feces was recovered within 552 hours of dosing with investigational product. In Part 2 (Mass Balance), the mass balance data confirmed that the primary elimination route of OCA is through the feces. A mean of 87% of administered radioactivity was recovered from the feces over the entire collection period, and a minor percentage (<3%) was recovered from the urine.

[7] = rat; single oral administration of [14C] OCA
Description: Preclinical mass balance and radiolabeled single dose PK studies in the rat have examined biliary, urinary, and fecal excretion of OCA and its metabolites.

[8] = plasma, single oral dose 25 mg OCA tablet, mean (SD), N = 5
[9] = plasma, single oral dose 25 mg OCA tablet, median and range, N = 5
[10] = 25 mg oral dose of [14C]-OCA, N = 8
[11] = 25 mg oral dose of [14C]-OCA, median and range, N = 8
[12] = male, human, plasma [14C]-OCA, 15 minute IV infusion of 100 μg [14C]-OCA, mean (SD), N = 5
[13] = by 504 hours postdose, single oral 25 mg [14C]-OCA
[14] = over the entire collection period

In the case of `CC[C@H]1[C@@H](O)[C@@H]2[C@H](CC[C@]3(C)[C@@H]([C@H](C)CCC(=O)NCCS(=O)(=O)O)CC[C@@H]23)[C@@]2(C)CC[C@@H](O)C[C@@H]12` [Tauro-OCA], the AUC0-t [1, 8] is reported as 624 (159.6) hours*ng/mL, the Cmax [1, 8] is reported as 23.1 (7.412) ^ ng/mL and the tmax [1, 9] is reported as 36.000 (2.00, 60.00) h. For the same molecule, the AUC0-t [2, 10] was 2550 (2155) ^ hours*ng/mL, the Cmax [2, 10] was 24.4 (14.21) ng/mL and the tmax [2, 11] was 9.03 (2.50, 36.0) h. The “pharmacological action compared with parent drug (OCA)” value [3] was “equipotent”.

With `CC[C@H]1[C@@H](O)C2C3CC[C@H]([C@H](C)CCC(=O)O)[C@@]3(C)CCC2[C@@]2(C)CC[C@@H](O[C@@H]3O[C@H](C(=O)O)[C@@H](O)[C@H](O)[C@H]3O)C[C@@H]12` (some centres unmarked) [OCA-3 glucuronide, OCA-3-O-Glucuronide] the “circulating OCA metabolites other than glyco-OCA and tauro-OCA” value [2] was “identified”.

For `CC[C@H]1[C@@H](O)[C@@H]2[C@H](CC[C@]3(C)[C@@H]([C@H](C)CCC(=O)O)CC[C@@H]23)[C@@]2(C)CC[C@@H](O)C[C@@H]12` [OCA, 3α,7α-dihydroxy-6α-ethyl-5β-cholan-24-oic acid], the bioavailability ([1]; male, human, plasma, oral, 25 mg, ratio of dose normalized AUC oral 25 mg OCA / IV 100 μg [14C]-OCA, mean (SD), N = 5, read-out: F (absolute bioavailability)) was roughly 17%, the tmax ([1]; male, human, plasma, oral 25 mg OCA, read-out: median tmax) was 30 min and the AUC0-t ([1]; male, human, plasma, single oral dose 25 mg OCA tablet, mean (SD), N = 5, read-out: AUC0-t) was 144 ng·h/mL. For the same molecule, the Cmax ([1]; male, human, plasma, single oral dose 25 mg OCA tablet, mean (SD), N = 5, read-out: Cmax) was 80.9 ng/mL, the “subsequent OCA plasma concentrations relative to Cmax” value ([1]; on average, after the decline within 4 hours, up to 72 hours post-dose, oral 25 mg OCA) was “less than 10%” and the “contribution of parent to overall exposure of total OCA (AUC0-t)” value ([1]; oral 25 mg OCA) was “less than 10%”. The tmax [1, 9] was 0.500 (0.50, 2.03) h, the tmax ([2]; male, human, 25 mg oral [14C]-OCA, read-out: median tmax) was 75 min and the AUC0-t ([2]; male, human, 25 mg oral dose of [14C]-OCA, N = 8, read-out: AUC0-t) was 475 ng·h/mL. The Cmax ([2]; male, human, 25 mg oral dose of [14C]-OCA, N = 8, read-out: Cmax) was 63.7 ng/mL, the tmax [2, 11] was 1.25 (0.750, 2.50) h and the “FXR activity” value [4] was “highly potent FXR modulator”.

In the case of `CC[C@H]1[C@@H](O)[C@@H]2[C@H](CC[C@]3(C)[C@@H]([C@H](C)CCC(=O)NCC(=O)O)CC[C@@H]23)[C@@]2(C)CC[C@@H](O)C[C@@H]12` [Glyco-OCA], the AUC0-t [1, 8] is reported as 1540 (480.7) hours*ng/mL, the Cmax [1, 8] is reported as 57.4 (24.43) ng/mL and the tmax [1, 9] is reported as 8.000 (2.00, 36.00) h. For the same molecule, the AUC0-t [2, 10] was 4690 (2232) ^ hours*ng/mL, the Cmax [2, 10] was 73.8 (39.96) ng/mL and the tmax [2, 11] was 10.0 (3.00, 36.0) h. The “pharmacological action compared with parent drug (OCA)” value [3] was “equipotent”.

In the case of `CC[C@H]1[C@@H](O)[C@H]2C3CC[C@H]([C@H](C)CCC(=O)O[C@@H]4O[C@H](C(=O)O)[C@@H](O)[C@H](O)[C@H]4O)[C@@]3(C)CC[C@@H]2[C@@]2(C)CC[C@@H](O)C[C@@H]12` (some centres unmarked) [OCA-24 glucuronide], the “circulating OCA metabolites other than glyco-OCA and tauro-OCA” value [2] is reported as “identified”.

For `CC[C@H]1[C@@H](O)C2C3CC[C@H]([C@H](C)CCC(=O)O)[C@@]3(C)CCC2[C@@]2(C)CC[C@@H](O)C[C@@H]12` (some centres unmarked) [[^14C]-OCA, [^14C]OCA], the “Vs (volume of distribution)” value ([5]; 15 minute IV infusion of 100 μg [14C]-OCA, mean (SD), N = 5) was 618 (341.9) L, the clearance ([5]; male, human, plasma, 15 minute IV infusion of 100 μg [14C]-OCA, mean (SD), N = 5, read-out: CL (total plasma clearance) (converted)) was 417 mL/min and the Vd ([5]; male, human, plasma, 15 minute IV infusion of 100 μg [14C]-OCA, mean (SD), N = 5, read-out: Vss (volume of distribution at steady state)) was 210 L. The AUC0-t [5, 12] was 3.86 ng·h/mL, the Cmax [5, 12] was 9.71 ng/mL and the “AUC0-t of [14C]-OCA as share of the total radioactive exposure” value ([5]; over 72 hours, IV 100 μg [14C]-OCA) was “approximately 20%”. For the same molecule, the “total radioactivity administered recovered from feces, mean” value ([6]; at 1152 hours) was 87.0%, the “radioactivity recovered from feces, average” value [6, 13] was 72.3% and the “total radioactivity administered recovered from urine and feces, mean” value [6, 13] was 75.1%. For the same molecule, the “administered radioactivity recovered from the feces, mean” value [6, 14] was 87%, the “administered radioactivity recovered from the urine” value [6, 14] was less than 3% and the “total radioactivity recovered from the urine, average” value ([6]; single oral 25 mg [14C]-OCA) was 2.83%. For the same molecule, the “route of excretion of radioactivity” value [7] was “excreted mainly in the feces”.
